Measurements: patent EP0252380B1, “Antibiotic LL-E19020 alpha and beta” (AMERICAN CYANAMID COMPANY, priority 1986, dated 1988)
Marks after values point to notes of the source that are not given here.

Assay: Weight gains and feed efficiency in broiler chicks treated with E19020 alpha (Table IX A)
Type: in vivo
Details: for FEED/GAIN 0-3 WEEKS: control 1.43; for FEED/GAIN 0-7 WEEKS: control 1.99; for WEIGHT GAIN IN GRAMS 0-3 WEEKS: control 608; for WEIGHT GAIN IN GRAMS 0-7 WEEKS: control 2145
Protocol: Five male and five female one day old Peterson X Arbor Acres chicks are allotted to starter battery cages by weight. Cages are randomized to treatment groups with seven replicates per treatment. […] The positive standard is penicillin at 200 ppm. Diets are prepared weekly.

C/C=C\C=C\[C@@H]1O[C@](O)([C@H](CO[C@H]2C[C@@H](OC)[C@@H](O[C@@H]3C[C@@H](OC)[C@@H](O[C@H]4C[C@H](OC)[C@H](O)[C@H](C)O4)[C@H](C)O3)[C@@H](C)O2)C(=O)NC/C=C/C=C(\C)[C@@H](OC)[C@H](C)[C@H]2C[C@H](O)[C@H](/C=C/C=C/C=C/C(=O)O)O2)[C@H](OC(=O)Cc2ccccc2)[C@H](O)C1(C)C [LL-E19020 alpha]
FEED/GAIN % IMPROVEMENT OVER CONTROLS 0-3 WEEKS (6.25 PPM): 3.5% | FEED/GAIN % IMPROVEMENT OVER CONTROLS 0-7 WEEKS (6.25 PPM): 5.0% | WEIGHT GAIN % IMPROVEMENT OVER CONTROLS 0-3 WEEKS (6.25 PPM): 4.4% | WEIGHT GAIN % IMPROVEMENT OVER CONTROLS 0-7 WEEKS (6.25 PPM): 1.8% | FEED/GAIN 0-3 WEEKS (6.25 PPM): 1.38** | FEED/GAIN 0-7 WEEKS (6.25 PPM): 1.89** | WEIGHT GAIN IN GRAMS 0-3 WEEKS (6.25 PPM): 635* GRAMS | WEIGHT GAIN IN GRAMS 0-7 WEEKS (6.25 PPM): 2183 GRAMS | FEED/GAIN % IMPROVEMENT OVER CONTROLS 0-3 WEEKS (12.5 PPM): 3.5% | FEED/GAIN % IMPROVEMENT OVER CONTROLS 0-7 WEEKS (12.5 PPM): 4.0% | WEIGHT GAIN % IMPROVEMENT OVER CONTROLS 0-3 WEEKS (12.5 PPM): 6.3% | WEIGHT GAIN % IMPROVEMENT OVER CONTROLS 0-7 WEEKS (12.5 PPM): 2.5% | FEED/GAIN 0-3 WEEKS (12.5 PPM): 1.38** | FEED/GAIN 0-7 WEEKS (12.5 PPM): 1.91** | WEIGHT GAIN IN GRAMS 0-3 WEEKS (12.5 PPM): 647* GRAMS | WEIGHT GAIN IN GRAMS 0-7 WEEKS (12.5 PPM): 2198 GRAMS | FEED/GAIN % IMPROVEMENT OVER CONTROLS 0-3 WEEKS (25 PPM): 3.5% | FEED/GAIN % IMPROVEMENT OVER CONTROLS 0-7 WEEKS (25 PPM): 5.0% | WEIGHT GAIN % IMPROVEMENT OVER CONTROLS 0-3 WEEKS (25 PPM): 8.4% | WEIGHT GAIN % IMPROVEMENT OVER CONTROLS 0-7 WEEKS (25 PPM): 5.7% | FEED/GAIN 0-3 WEEKS (25 PPM): 1.38** | FEED/GAIN 0-7 WEEKS (25 PPM): 1.89** | WEIGHT GAIN IN GRAMS 0-3 WEEKS (25 PPM): 659** GRAMS | WEIGHT GAIN IN GRAMS 0-7 WEEKS (25 PPM): 2267* GRAMS | FEED/GAIN % IMPROVEMENT OVER CONTROLS 0-3 WEEKS (50 PPM): 2.8% | FEED/GAIN % IMPROVEMENT OVER CONTROLS 0-7 WEEKS (50 PPM): 4.0% | WEIGHT GAIN % IMPROVEMENT OVER CONTROLS 0-3 WEEKS (50 PPM): 5.6% | WEIGHT GAIN % IMPROVEMENT OVER CONTROLS 0-7 WEEKS (50 PPM): 2.8% | FEED/GAIN 0-3 WEEKS (50 PPM): 1.39* | FEED/GAIN 0-7 WEEKS (50 PPM): 1.91** | WEIGHT GAIN IN GRAMS 0-3 WEEKS (50 PPM): 642* GRAMS | WEIGHT GAIN IN GRAMS 0-7 WEEKS (50 PPM): 2206 GRAMS | FEED/GAIN % IMPROVEMENT OVER CONTROLS 0-3 WEEKS (100 PPM): 5.6% | FEED/GAIN % IMPROVEMENT OVER CONTROLS 0-7 WEEKS (100 PPM): 4.0% | WEIGHT GAIN % IMPROVEMENT OVER CONTROLS 0-3 WEEKS (100 PPM): 7.3% | WEIGHT GAIN % IMPROVEMENT OVER CONTROLS 0-7 WEEKS (100 PPM): 2.8% | FEED/GAIN 0-3 WEEKS (100 PPM): 1.35** | FEED/GAIN 0-7 WEEKS (100 PPM): 1.91** | WEIGHT GAIN IN GRAMS 0-3 WEEKS (100 PPM): 652** GRAMS | WEIGHT GAIN IN GRAMS 0-7 WEEKS (100 PPM): 2204 GRAMS
